Reference: publication PMC11790914, “Chemogenomics for steroid hormone receptors (NR3)” (Communications Chemistry, 2025)
Values joined by “and” are separate entries in the source; they are usually repeats but may differ in a detail not shown here. Identical values can stand only once. Like-named read-outs stand apart in the source and are kept apart here.

Columns and labels:
AURKA = biological target: T1, AURKA (Homo sapiens, UniProt O14965); assay: Liability panel screening by DSF: AURKA; format: binding; settings: DSF, 20 µM, n=2; read-out: Mean ΔTM AURKA
T1 construct: made in house
T1 sequence (O14965 1-403): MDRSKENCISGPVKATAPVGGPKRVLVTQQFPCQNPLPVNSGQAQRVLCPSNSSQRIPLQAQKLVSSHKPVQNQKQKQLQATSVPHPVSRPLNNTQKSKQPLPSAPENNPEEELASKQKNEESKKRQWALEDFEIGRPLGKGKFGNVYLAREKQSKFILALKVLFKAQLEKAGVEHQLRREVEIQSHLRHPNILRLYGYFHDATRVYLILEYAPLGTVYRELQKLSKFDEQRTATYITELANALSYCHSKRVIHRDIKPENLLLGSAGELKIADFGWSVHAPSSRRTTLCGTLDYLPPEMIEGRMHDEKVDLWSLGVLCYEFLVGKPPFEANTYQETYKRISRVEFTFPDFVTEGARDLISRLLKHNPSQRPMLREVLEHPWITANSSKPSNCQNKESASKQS
Outline: (§1)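 Thermal shift: in-house recombinant protein at 2 µM in 10 mM HEPES pH 7.5 with 500 mM NaCl, SYPRO Orange 1:1000, heated at 3 °C/min to 85 °C in technical duplicates. Tm is the Boltzmann inflection point, reported as ∆Tm in K.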

CDK2 = biological target: T2, CDK2 (Homo sapiens, UniProt P24941); assay: Liability panel screening by DSF: CDK2; format: binding; settings: DSF, 20 µM, n=2; read-out: Mean ΔTM CDK2
T2 construct: made in house
Outline: as §1

HEK293T cells [1] = assay: Cytotoxicity: necrosis induction (red fluorescent dye for permeable plasma membranes); format: cell-based; settings: 24 h, necrotic cell count normalized to 0.1% DMSO, single replicates;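 note: compounds applied in DMEM high glucose with 0.1% FCS and 0.1% DMSO, necrotic HEK293T cells counted by red staining of cells whose plasma membranes had become permeable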
TRIM24 = biological target: T3, TRIM24 (Homo sapiens, UniProt O15164); assay: Liability panel screening by DSF: TRIM24; format: binding; settings: DSF, 20 µM, n=2; read-out: Mean ΔTM TRIM24
T3 construct: This panel comprised ten highly ligandable kinases and bromodomains; made in house
T3 sequence (O15164 899-1004 limits assumed): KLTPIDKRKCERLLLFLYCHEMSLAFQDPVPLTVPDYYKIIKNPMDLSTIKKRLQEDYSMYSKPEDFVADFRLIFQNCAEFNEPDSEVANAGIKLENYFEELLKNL
Outline: as §1

[2] = system: NF-κB activity in HEK293 NF-κB reporter cells; assay: NF-kB activity assay (GFP reporter, ionomycin/PMA); format: cell-based; settings: n=3
Outline: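 HEK293 NF-κB GFP reporter cells given compound in 0.1% DMSO for 4 h, then stimulated with ionomycin 100 ng/mL plus PMA 10 ng/mL. Imaged every 90 min over 24 h; GFP-positive cell count normalized to confluence, three independent biological replicates.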

ABL1 = biological target: T4, ABL1 (Homo sapiens, UniProt P00519); assay: Liability panel screening by DSF: ABL1; format: binding; settings: DSF, 20 µM, n=2; read-out: Mean ΔTM ABL1
T4 construct: made in house
Outline: as §1

CSNK1D = biological target: T5, CSNK1D (Homo sapiens, UniProt P48730); assay: Liability panel screening by DSF: CSNK1D; format: binding; settings: DSF, 20 µM, n=2; read-out: Mean ΔTM CSNK1D
T5 construct: made in house
Outline: as §1

GSK3B = biological target: T6, GSK3B (Homo sapiens, UniProt P49841); assay: Liability panel screening by DSF: GSK3B; format: binding; settings: DSF, 20 µM, n=2; read-out: Mean ΔTM GSK3B
T6 construct: made in house

[3] = system: ATF6 activity in Hela ATF6 reporter cells; assay: Endoplasmic reticulum stress assay (ATF6 Renilla luciferase reporter, tunicamycin); format: cell-based; settings: for ATF6 activity (tunicamycin-induced endoplasmic reticulum stress): Hela ATF6 reporter cells, tunicamycin 100 ng/mL, 18 h
Outline: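 HeLa ATF6 Renilla reporter cells were pretreated 4 h with compounds in 0.1% DMSO, then stimulated with tunicamycin (100 ng/mL) for 18 h. Renilla luminescence (DualGlo) was normalized to 0.1% DMSO control; five independent experiments.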

HEK293T cells [4] = assay: Cytotoxicity: growth-rate (change in confluence over 24 h); settings: normalized to 0.1% DMSO control, single replicates (n=1...)
HEK293T cells [5] = assay: Cytotoxicity: apoptosis induction (caspase-3/7 DEVD fluorogenic DNA dye); settings: HEK293T, 24 h, apoptotic cell count normalized to 0.1% DMSO, single replicates
HEK293T cells [6] = assay: Cytotoxicity: metabolic activity (WST-8 / CCK-8 assay); settings: HEK293T, 24 h, WST-8, normalized to 0.1% DMSO, single replicates
Gal4-VP16 = format: cell-based; settings: vs. DMSO ctrl, single replicates n=1-3
BRD4 = biological target: T7, BRD4 (Homo sapiens, UniProt O60885); assay: Liability panel screening by DSF: BRD4; format: binding; settings: DSF, 20 µM, n=2; read-out: Mean ΔTM BRD4
T7 construct: This panel comprised ten highly ligandable kinases and bromodomains; made in house
Outline: as §1

T4 sequence (P00519 whole entry, species assumed): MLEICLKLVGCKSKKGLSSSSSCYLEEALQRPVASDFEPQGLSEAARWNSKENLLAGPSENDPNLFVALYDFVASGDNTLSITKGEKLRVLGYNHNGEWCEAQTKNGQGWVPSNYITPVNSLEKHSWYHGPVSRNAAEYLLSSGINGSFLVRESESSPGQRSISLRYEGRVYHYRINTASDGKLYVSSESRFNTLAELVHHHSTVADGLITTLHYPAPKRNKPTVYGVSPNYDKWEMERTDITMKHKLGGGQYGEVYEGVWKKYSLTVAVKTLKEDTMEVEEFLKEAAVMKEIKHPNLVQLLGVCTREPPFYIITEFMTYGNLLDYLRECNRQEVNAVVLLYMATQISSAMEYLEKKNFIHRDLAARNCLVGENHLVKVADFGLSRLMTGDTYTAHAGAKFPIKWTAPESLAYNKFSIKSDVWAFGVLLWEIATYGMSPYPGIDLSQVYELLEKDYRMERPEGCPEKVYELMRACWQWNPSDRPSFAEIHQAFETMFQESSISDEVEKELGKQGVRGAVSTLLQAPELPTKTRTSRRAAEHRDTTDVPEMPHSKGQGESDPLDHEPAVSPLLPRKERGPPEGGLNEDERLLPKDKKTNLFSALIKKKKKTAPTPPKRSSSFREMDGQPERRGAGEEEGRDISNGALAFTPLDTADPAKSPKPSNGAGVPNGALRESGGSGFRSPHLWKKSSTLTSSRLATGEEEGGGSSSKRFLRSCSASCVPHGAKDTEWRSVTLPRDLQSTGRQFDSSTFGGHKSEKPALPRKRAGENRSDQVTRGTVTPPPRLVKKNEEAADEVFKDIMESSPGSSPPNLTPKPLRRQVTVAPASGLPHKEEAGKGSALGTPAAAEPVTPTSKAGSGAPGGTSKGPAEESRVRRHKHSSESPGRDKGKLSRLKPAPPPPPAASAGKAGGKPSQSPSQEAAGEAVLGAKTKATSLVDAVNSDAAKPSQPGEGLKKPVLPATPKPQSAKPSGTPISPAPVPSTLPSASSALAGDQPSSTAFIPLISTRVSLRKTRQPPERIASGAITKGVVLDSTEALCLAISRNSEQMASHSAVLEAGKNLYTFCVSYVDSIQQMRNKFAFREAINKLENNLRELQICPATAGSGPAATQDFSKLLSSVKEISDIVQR
T5 sequence (P48730 whole entry, species assumed): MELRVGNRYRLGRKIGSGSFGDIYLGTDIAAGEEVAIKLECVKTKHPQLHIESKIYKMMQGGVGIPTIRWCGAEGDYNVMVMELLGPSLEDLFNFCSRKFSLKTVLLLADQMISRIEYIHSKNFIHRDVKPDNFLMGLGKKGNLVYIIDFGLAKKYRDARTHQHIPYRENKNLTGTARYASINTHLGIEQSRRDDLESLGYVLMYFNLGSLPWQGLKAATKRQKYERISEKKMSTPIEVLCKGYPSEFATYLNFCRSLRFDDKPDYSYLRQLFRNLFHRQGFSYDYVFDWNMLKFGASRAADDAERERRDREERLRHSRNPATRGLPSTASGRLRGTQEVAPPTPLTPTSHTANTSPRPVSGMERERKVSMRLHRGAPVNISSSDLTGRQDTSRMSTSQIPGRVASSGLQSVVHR
T6 sequence (P49841 whole entry, species assumed): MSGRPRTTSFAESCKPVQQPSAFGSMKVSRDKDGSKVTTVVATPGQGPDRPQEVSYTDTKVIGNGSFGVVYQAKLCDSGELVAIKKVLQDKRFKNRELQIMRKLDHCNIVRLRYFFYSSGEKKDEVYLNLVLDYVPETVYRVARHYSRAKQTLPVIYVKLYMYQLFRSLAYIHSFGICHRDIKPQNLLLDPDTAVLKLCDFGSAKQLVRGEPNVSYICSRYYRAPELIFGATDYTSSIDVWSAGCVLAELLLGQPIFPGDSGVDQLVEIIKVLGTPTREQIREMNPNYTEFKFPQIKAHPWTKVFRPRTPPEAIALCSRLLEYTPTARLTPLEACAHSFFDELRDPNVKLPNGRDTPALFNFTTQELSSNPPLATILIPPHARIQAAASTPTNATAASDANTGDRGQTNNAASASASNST

SMILES: CC/C(=C(\c1ccc(O)cc1)c1ccc(OCCN(C)C)cc1)c1ccccc1 [(Z)-4-Hydroxytamoxifen]
- ΔTm at 20 µM (AURKA): 0.07 °C
- ΔTm at 20 µM (CDK2): -0.23 °C
- Necrosis induction [NI] (HEK293T cells [1]; 0.3 µM): 0.97 and 1.43 and 0.88 and 1.20
- Necrosis induction [NI] (HEK293T cells [1]; 3 µM): 1.55 and 1.35 and 1.14 and 1.44
- ΔTm at 20 µM (TRIM24): -0.41 °C
- Mean NFκB response ([2]; 0.3 µM, 1,5 h): 2504.77 GFP+-cells/confluence ∙ 1000
- Mean NFκB response ([2]; 0.3 µM, 4,5 h): 3089.76 GFP+-cells/confluence ∙ 1000
- Mean NFκB response ([2]; 0.3 µM, 7,5 h): 8223.00 GFP+-cells/confluence ∙ 1000
- Mean NFκB response ([2]; 0.3 µM, 10,5 h): 20009.52 GFP+-cells/confluence ∙ 1000
- Mean NFκB response ([2]; 0.3 µM, 13,5 h): 28937.88 GFP+-cells/confluence ∙ 1000
- Mean NFκB response ([2]; 0.3 µM, 16,6 h): 35283.33 GFP+-cells/confluence ∙ 1000
- Mean NFκB response ([2]; 0.3 µM, 19,5 h): 40116.67 GFP+-cells/confluence ∙ 1000
- Mean NFκB response ([2]; 0.3 µM, 22,5 h): 43200.00 GFP+-cells/confluence ∙ 1000
- Mean NFκB response ([2]; 0.3 µM, 3 h): 2555.89 GFP+-cells/confluence ∙ 1000
- Mean NFκB response ([2]; 0.3 µM, 6 h): 4572.00 GFP+-cells/confluence ∙ 1000
- Mean NFκB response ([2]; 0.3 µM, 9 h): 14658.14 GFP+-cells/confluence ∙ 1000
- Mean NFκB response ([2]; 0.3 µM, 12 h): 24637.27 GFP+-cells/confluence ∙ 1000
- Mean NFκB response ([2]; 0.3 µM, 15 h): 32269.00 GFP+-cells/confluence ∙ 1000
- Mean NFκB response ([2]; 0.3 µM, 18 h): 37590.00 GFP+-cells/confluence ∙ 1000
- Mean NFκB response ([2]; 0.3 µM, 21 h): 41653.33 GFP+-cells/confluence ∙ 1000
- Mean NFκB response ([2]; 0.3 µM, 24 h): 44413.33 GFP+-cells/confluence ∙ 1000
- Mean NFκB response ([2]; 3 µM, 1,5 h): 2613.90 GFP+-cells/confluence ∙ 1000
- Mean NFκB response ([2]; 3 µM, 4,5 h): 3334.14 GFP+-cells/confluence ∙ 1000
- Mean NFκB response ([2]; 3 µM, 7,5 h): 7514.38 GFP+-cells/confluence ∙ 1000
- Mean NFκB response ([2]; 3 µM, 10,5 h): 19242.21 GFP+-cells/confluence ∙ 1000
- Mean NFκB response ([2]; 3 µM, 13,5 h): 28764.40 GFP+-cells/confluence ∙ 1000
- Mean NFκB response ([2]; 3 µM, 16,6 h): 35561.15 GFP+-cells/confluence ∙ 1000
- Mean NFκB response ([2]; 3 µM, 19,5 h): 40217.80 GFP+-cells/confluence ∙ 1000
- Mean NFκB response ([2]; 3 µM, 22,5 h): 43818.60 GFP+-cells/confluence ∙ 1000
- Mean NFκB response ([2]; 3 µM, 3 h): 2770.52 GFP+-cells/confluence ∙ 1000
- Mean NFκB response ([2]; 3 µM, 6 h): 4451.37 GFP+-cells/confluence ∙ 1000
- Mean NFκB response ([2]; 3 µM, 9 h): 13511.36 GFP+-cells/confluence ∙ 1000
- Mean NFκB response ([2]; 3 µM, 12 h): 24240.37 GFP+-cells/confluence ∙ 1000
- Mean NFκB response ([2]; 3 µM, 15 h): 32735.51 GFP+-cells/confluence ∙ 1000
- Mean NFκB response ([2]; 3 µM, 18 h): 38442.69 GFP+-cells/confluence ∙ 1000
- Mean NFκB response ([2]; 3 µM, 21 h): 42295.79 GFP+-cells/confluence ∙ 1000
- Mean NFκB response ([2]; 3 µM, 24 h): 44964.03 GFP+-cells/confluence ∙ 1000
- ΔTm at 20 µM (ABL1): 0.29 °C
- ΔTm at 20 µM (CSNK1D): 0.12 °C
- ΔTm at 20 µM (GSK3B): -1.45 °C
- ATF6 activity (tunicamycin-induced endoplasmic reticulum stress) ([3]; 0.3 µM): mediated resolution of the tunicamycin-induced endoplasmic reticulum stress
- ATF6 activity (tunicamycin-induced endoplasmic reticulum stress) ([3]; 3 µM): lacked this effect
- activity at 0.3 µM ([3]; Homo sapiens, HeLa, 0.3 µM, single replicates n=1 to n=5, read-out: ER stress [rel. ATF6 activity]): 51%
- Growth rate [GR] (HEK293T cells [4]; 0.3 µM): 1.08 and 2.89 and 1.33 and 1.37 and 0.91 and 0.88 and 0.61 and 1.06 and 2.68 and 37.77
- Growth rate [GR] (HEK293T cells [4]; 3 µM): 0.97 and 4.28 and 1.10 and 0.79 and 0.56 and 0.41 and 0.43 and 1.54 and 1.12 and 39.66
- Apoptosis induction [AI] (HEK293T cells [5]; 0.3 µM): 0.84 and 1.40 and 1.81 and 1.38 and 0.62 and 0.65
- Apoptosis induction [AI] (HEK293T cells [5]; 3 µM): 1.07 and 1.34 and 1.98 and 1.60 and 1.04 and 1.22
- Metabolic activity [MA] (HEK293T cells [6]; 0.3 µM): 1.00 and 1.02 and 0.89 and 0.98 and 0.96 and 0.95 and 1.06 and 0.84
- Metabolic activity [MA] (HEK293T cells [6]; 3 µM): 0.88 and 0.94 and 0.92 and 0.98 and 0.96 and 0.89 and 1.00 and 0.84
- VP16 control [fold reporter gene activity] (Gal4-VP16; 0.3 µM): 1.09 fold reporter gene activity and 0.88 fold reporter gene activity and 1.33 fold reporter gene activity
- VP16 control [fold reporter gene activity] (Gal4-VP16; 3 µM): 1.11 fold reporter gene activity and 1.04 fold reporter gene activity and 1.49 fold reporter gene activity
- ΔTm at 20 µM (BRD4): -3.37 °C
